According to patent US20130303500A1, “COMPOUNDS AND METHODS FOR TREATING NEOPLASIA” (Medexis S.A., priority 2010, published 2013):

What was measured:
[1] = target: Na+/K+-ATPase (Adenosine 5′-Triphosphatase isolated from porcine cerebral cortex); assay: Na+/K+-ATPase inhibitory activity, colorimetric Adenosine 5′-Triphosphatase Enzymatic Assay (Sigma); type: biochemical; settings: enzyme from porcine cerebral cortex, 0.5 units/ml
Protocol: The compound inhibitory effect on ATPase activity was assessed in vitro using the colorimetric Adenosine 5′-Triphosphatase Enzymatic Assay of Sigma (St. Louis, Mo.) according to the manufacturer's instructions. This assay utilizes Adenosine 5′-Triphosphatase isolated from porcine cerebral cortex. Each reaction was performed in a final volume of […] using 0.5 units/ml enzyme in the presence of the different inhibitors. […] IC50 values were determined using the Origin® program software (OriginLab, Northampton, Mass.).

[2] = system: SF268 (CNS) cells; assay: Sulforhodamine B (SRB) assay, SF268; type: cell-based; settings: Homo sapiens; for CC50: SF-268, 48 h, read-out: LC50; for GI50 / IC (TGI): SF-268, SF268 CNS, SRB, 48 h
Protocol: (§1) Sulforhodamine B (SRB) assays were performed according to standard National Cancer Institute Guidelines. Briefly, human tumor cells from different cancer panels were seeded into 96 well plates in […] (plating densities ranging from 5-40,000 cells/well depending on the doubling time of individual cell lines) in serum-containing media for twenty-four hours prior to the addition of the compounds to be assayed. After 24 hours, one plate of each cell line was fixed in situ with trichloroacetic acid (TCA). The fixed slides were used to determine the cell population for each cell line at the time of drug addition (Tz). Each compound to be tested was solubilized in dimethyl sulfoxide (DMSO) and the desired concentration was then added to the medium and diluted serially 1:10 to provide a total of five or ten drug concentrations plus control (in a final volume of 200 μL). The starting dose before any dilution was 100 uM for all compounds.
(§2) Following drug addition, each culture was incubated for forty-eight hours. The assay was terminated with the addition of cold TCA. The supernatant was discarded, and the plates were washed with tap water and air dried. SRB solution was then added to each well. After staining, the bound stain was solubilized and the absorbance was read on an automated plate reader at a wavelength of 515 nm.
(§3) Using the absorbance measurements [time zero, (Tz), control growth, (C), and test growth in the presence of drug at the ten concentration levels (Ti)], the percentage growth was calculated at each of the drug concentrations levels. Percentage growth inhibition was calculated as:
(§4) [(Ti−Tz)/(C−Tz)]×100 for concentrations for which Ti>/=Tz
(§5) [(Ti−Tz)/Tz]×100 for concentrations for which Ti<Tz.
(§6) Three dose response parameters were calculated for each experimental agent. Growth inhibition of 50% (GI50) was calculated from [(Ti−Tz)/(C−Tz)]×100=50, which was the drug concentration resulting in a 50% reduction in the net protein increase (as measured by SRB staining) in control cells during the drug. The drug concentration resulting in total growth inhibition (TGI) was calculated from Ti=Tz. The LC50 (concentration of drug resulting in a 50% reduction in the measured protein at the end of the drug treatment as compared to that at the beginning) indicating a net loss of cells following treatment was calculated from [(Ti−Tz)/Tz]×100=−50.
(§7) Values were calculated for each of these three parameters when the level of activity was reached; however, if the effect was not reached or was exceeded, the value for that parameter was expressed as greater or less than the maximum or minimum concentration tested.

[3] = system: MCF7 (Breast) cells; assay: Sulforhodamine B (SRB) assay, MCF7; type: cell-based, human; settings: for CC50 / GI50: Homo sapiens; for CC50: MCF7, 48 h, read-out: LC50; for GI50 / TGI: MCF7 Breast, SRB, 48 h
Protocol: as §1, §2, §3, §4, §5, §6, §7

[4] = system: NCI-ADR-RES (Ovarian) cells; assay: Sulforhodamine B (SRB) assay, NCI-ADR-RES (multidrug resistant); type: cell-based, human; settings: 48 h; for CC50 / GI50: Homo sapiens; for CC50: NCI/ADR-RES, read-out: LC50; for GI50 / TGI: NCI-ADR-RES Ovarian, SRB
Protocol: as §1, §2, §3, §4, §5, §6, §7

[5] = system: HCT116 (Colon) cells; assay: Sulforhodamine B (SRB) assay, HCT116; type: cell-based, human; settings: for TGI / GI50: HCT116 Colon, SRB, 48 h; for CC50 / GI50: Homo sapiens; for CC50: HCT-116, 48 h, read-out: LC50; for GI50: HCT-116
Protocol: as §1, §2, §3, §4, §5, §6, §7

[6] = system: 7 different cell lines (lung, ovarian, prostate, CNS, breast, colon); assay: SRB assays across 7 cell lines; type: cell-based, human; settings: for CC50 / GI50: Homo sapiens; for CC50: read-out: LC50 values; for GI50 / GI50 action in most cell lines: SRB; for GI50: average over cell lines; for viability and/or cell proliferation of cell lines: cell lines representative of lung, breast, CNS, prostate, ovarian, colon and renal neoplasias; for anti-cancer activity in SRB assays: multiple cell lines
Protocol: as §1, §2, §3, §4, §5, §6, §7
SRB provides a colorimetric measure of a compound's anti-cancer activity. SRB assays were performed with compounds of the invention in 7 different cell lines, which represent six different tumor panels (lung, ovarian, prostate, CNS, breast, colon).

[7] = system: H460 (Lung) cells; assay: Sulforhodamine B (SRB) assay, H460; type: cell-based, human; settings: for TGI / GI50: H460 Lung, SRB, 48 h; for CC50 / GI50: Homo sapiens; for CC50: NCI-H460, 48 h, read-out: LC50; for GI50: NCI-H460
Protocol: as §1, §2, §3, §4, §5, §6, §7

[8] = system: PC3 (Prostate) cells; assay: Sulforhodamine B (SRB) assay, PC3; type: cell-based; settings: Homo sapiens, Prostate cell, 48 h; for CC50: read-out: LC50; for GI50 / IC (TGI): PC3 Prostate, SRB
Protocol: as §1, §2, §3, §4, §5, §6, §7

[9] = system: A549 (Lung) cells; assay: Sulforhodamine B (SRB) assay, A549; type: cell-based; settings: Homo sapiens; for CC50: A549, 48 h, read-out: LC50; for GI50 / IC (TGI): A549 Lung, SRB, 48 h
Protocol: as §1, §2, §3, §4, §5, §6, §7

[10] = system: DU145 (Prostate) cells; assay: MTT cell proliferation/viability assay, DU145; type: cell-based; settings: Homo sapiens, DU-145, 72 h
Protocol: Cell proliferation/viability was assessed by the MTT [3-(4,5-dimethylthiazol-2-yl)-2,5-diphenyltetrazolium bromide] assay, which is commercially available (Sigma, St. Louis, Mo.). Cells were cultured in 96-well plates for twenty-four hours (7-10.000 cells/well) and incubated with various concentrations of the different compounds—as indicated in the Figures—in serum-containing medium (or left untreated) for seventy-two hours. At the end of incubation, the medium was aspirated and MTT dissolved in RPMI 1640 w/o phenol red was added to each well to a final concentration of 0.25 mg/ml. After four hours incubation in the dark (37° C., 5% CO2) the supernatant was discarded. The converted dye (blue formazan crystals) was solubilized by adding 200 μl dimethylsulfoxide to each well. Absorbance was measured at 550 nm with reference at 655 nm using a spectrophotometer with the respective filters. All assays were performed in triplicate.
The effect of the different compounds on the proliferation and viability of two cancer cell lines (DU145/prostate and CAKI/renal) was tested through quantitative (4,5-dimethylthiazol-2-yl)-2,5-diphenyltetrazolium bromide (MTT) assays.

Row | SMILES | IC50 [1] [µM] | CC50 [2] [µM] | GI50 [2] [µM] | IC (TGI) [2] [µM] | CC50 [3] [µM] | GI50 [3] [µM] | TGI [3] [µM] | CC50 [4] [µM] | GI50 [4] [µM] | CC50 [5] [µM] | viability and/or cell proliferation of cell lines [6] | CC50 [7] [µM] | GI50 [7] [µM] | CC50 [8] [µM] | GI50 [8] [µM] | IC (TGI) [8] [µM] | CC50 [9] [µM] | GI50 [9] [µM] | IC (TGI) [9] [µM] | IC50 [10] [µM] | further results
1 | CON=C1CC2C(CC[C@]3(C)C(=O)C(F)CC23)[C@@]2(C)CCC(=NOC3CCNC3)CC12 (stereo in doubt) [Compound 8, (5S,10R,13S,16R)-16a-fluoro-6-(methoxyimino)-10,13-dimethyl-3-((R)-pyrrolidin-3-yloxyimino)-tetradecahydro-2H-cyclopenta[a]phenanthren-17(14H)-one] | 0.311 | 0.085 | 0.004 | 0.038 | 6.96 | 0.024 | 0.327 | 0.508 | 0.014 | 1.04 | reduced the viability and/or cell proliferation | 0.074 | 0.004 | 0.919 | 0.009 | 0.199 | 0.075 | 0.006 | 0.029 | 0.223 | TGI [4]: 0.071 µM; TGI [5]: 0.236 µM; GI50 [5]: 0.035 µM; CC50 [6]: < 1 µM; GI50 [6]: < 1 µM; anti-cancer activity in SRB assays [6]: best activity; TGI [7]: 0.027 µM
2 | CON=C1CC2C(CC[C@]3(C)C(=O)CCC23)[C@@]2(CO)CCC(=NOC3CCNC3)CC12 (stereo in doubt) [Compound 30, (5S,10S,13S)-10-(hydroxymethyl)-6-methoxy-imino-13-methyl-3-((S)-pyrrolidin-3-yloxyimino)-tetradecahydro-14H-cyclopenta[a]phenanthrene-17-one] |  | 78.4 | 5.62 | 25800 |  |  |  |  |  |  |  |  |  | 75.2 | 7.71 | 36700 | 29.6 | 4.07 |  | 6.7 | 
3 | C=C1CC2C(CC[C@]3(C)C(=O)C(F)CC23)[C@@]2(C)CCC(=NOC3CCNC3)CC12 (stereo partly drawn) [Compound 6, (5S,10R,13S,16R)-16a-fluoro-6-methylene-10,13-dimethyl-3-((R)-pyrrolidin-3-yloxyimino)-tetradecahydro-2H-cyclopenta[a]phenanthren-17(14H)-one] |  | 0.071 | < 0.001 | 0.02 | 1.28 | 0.009 | 0.082 | 0.079 | 0.018 | 0.728 | reduced the viability and/or cell proliferation | 0.053 | 0.003 | 1.24 | 0.003 | 0.055 | 0.053 | 0.005 | 0.008 |  | TGI [4]: 0.049 µM; TGI [5]: 0.088 µM; GI50 [5]: 0.009 µM; CC50 [6]: < 1 µM; GI50 [6]: < 1 µM; anti-cancer activity in SRB assays [6]: best activity; TGI [7]: 0.008 µM
4 | C[C@]12CCC(=NO[C@H]3CCNC3)C(c3ccccc3)C1CCC1C2CC[C@]2(C)C(=O)CCC12 (stereo partly drawn) [Compound 21, (10R,13S)-10,13-dimethyl-4-phenyl-3-((S)-pyrrolidin-3-yloxyimino)-tetradecahydro-2H-cyclopenta[a]phenanthren-17(14H)-one] | 19.3 | 57.2 | 4.16 | 8450 |  |  |  |  |  |  | reduced the viability and/or cell proliferation |  |  | 49.1 | 4.46 |  | 45.3 | 4.41 |  | 13.5 | GI50 action in most cell lines [6]: single-digit micromolar
5 | C[C@]12CCC3C(CC[C@H]4CC(=NO[C@H]5CCNC5)CC[C@]34CO)C1CCC2=O (stereo partly drawn) [Compound 25, (5S,10R,13S)-10-(hydroxymethyl)-13-methyl-3-((S)-pyrrolidin-3-yloxyimino)-tetradecahydro-2H-cyclopenta[a]phenanthren-17(14H)-one] | 0.525 | 85.4 | 5.74 | 31300 | > 100 | 6.17 |  |  |  |  | reduced the viability and/or cell proliferation | > 100 | 4.37 | 9.44 | 3.89 |  | > 100 | 4.81 | 9410 | 15 | GI50 action in most cell lines [6]: single-digit micromolar
6 | C[C@]12CCC3C(CC(=O)[C@H]4CC(=NO[C@H]5CCNC5)CC[C@]34CO)C1CCC2=O (stereo partly drawn) [Compound 28, (5S,10S,13S)-10-(hydroxymethyl)-13-methyl-3-((S)-pyrrolidin-3-yloxyimino)-tetradecahydro-14H-cyclopenta[a]phenanthrene-6,17-dione] | 12.9 | > 100 | 63.8 | > 100 | > 100 | 76.5 | >100 |  |  |  | reduced the viability and/or cell proliferation | > 100 | 57.6 | 157 | 53.5 |  | > 100 | 62.6 | > 100 | 87 | TGI [7]: >100 µM
7 | CC1CC2C(CC[C@]3(C)C(=O)C(F)CC23)[C@@]2(C)CCC(=NOC3CCNC3)C=C12 (stereo partly drawn) [Compound 86, 16-Fluoro-6,10,13-trimethyl-1,6,7,8,9,10,11,12,13,14,15,16-dodecahydro-2H-cyclopenta[a]phenanthrene-3,17-dione 3-(O-pyrrolidin-3-yl-oxime)] |  | 8.11 | 1.86 | 4980 | 59.3 | 4.35 |  | 48.1 | 4.13 | 58.8 | reduced the viability and/or cell proliferation | 8.07 | 2.57 | 72.4 | 5.37 | 9780 | 8.05 | 2.45 | 5250 |  | GI50 [5]: 3.71 µM
